“Also recorded” adds a separate entry of the source.
Legend:
[1] = test system: AlCl3-induced AD rat model; experiment: Y-maze SAP test in AlCl3-induced AD rats; assay type: in vivo; conditions: for SAP%: mean ± SE, n = 6
Experimental: (§1) All procedures were conducted conforming to the applicable National Institutes of Health standards and regulations for the Care and Use of Laboratory Animals. In this experiment, adult male Dawley rats in excellent condition weighing between 300 and 320 g were used. The animals were acquired from the Nile Company for Pharmaceuticals and Chemical Industries (Cairo, Egypt). They were placed in a controlled laboratory setting with unrestricted access to water, a temperature range of 24 to 26 °C, and 12 h a light–dark cycle. Three rats per cage were housed in polycarbonate cages that were individually packed with paper and encased with stainless steel wire.
One kind of short-term memory that SAP can represent is spatial working memory. Three arms, designated A, B, or C, were employed in a black hardwood Y-maze with a symmetrical triangular core space. Rats were briefly positioned at the edge of one arm and given 8 min to freely navigate around the maze. When the rat’s rear paws were fully inside the arm, the entries were counted. The following formula was used to determine SAP based on the total number of arm entries and alternations: SAP (%) = [number of alternations/(total arm entries − 2)] × 100 [94].

NFκβ = NFκβ mRNA expression (RT-qPCR); assay type: in vivo, rat; set-up: reduction of NFκβ mRNA expression: concentration or dose not given beside the values; conditions: AlCl3-induced AD rats; for NFκβ: mRNA expression level, mean ± SE, n = 6
Experimental: (§2) The brain tissues of the rats were removed and rigorously washed in isotonic saline 24 h after they were euthanized following the last behavioral test. For histological investigation, four brains per group were preserved for the whole night in 10% neutral buffered formalin. The remaining six brains were split into two sections each. In order to create a 10% homogenate (w/v), the first component was instantaneously homogenized using an ice-cold solution that included 300 mM sucrose and 50 mM Tris-HCl (pH 7.4). The homogenate was centrifuged at 1800× g for 10 min at 4 °C for biochemical tests, and the supernatant was thereafter kept at −20 °C. The second portion was set aside for use in RT-PCR analysis at −80 °C [94].
(§3) See Supplementary Information.

Amyloid-β = experiment: Brain amyloid-β level (ELISA); assay type: in vivo, rat; set-up: reduction of β-amyloid levels: concentration or dose not given beside the values; conditions: AlCl3-induced AD rats; for Amyloid-β (ng/g Tissue): brain, mean ± SE, n = 6
Experimental: as §2, §3

NLRP3 = NLRP3 mRNA expression (RT-qPCR); assay type: in vivo, rat; set-up: reduction of NLRP3 mRNA expression: concentration or dose not given beside the values; conditions: AlCl3-induced AD rats; for NLRP3: mRNA expression level, mean ± SE, n = 6
Experimental: as §2, §3

Caspase-1 = Caspase-1 gene expression (RT-qPCR); assay type: in vivo, rat; set-up: reduction of Caspase-1 levels: concentration or dose not given beside the values; conditions: AlCl3-induced AD rats; for Caspase-1: gene expression, mean ± SE, n = 6
Experimental: as §2, §3

BACE1 = experiment: Brain BACE1 level (ELISA); assay type: in vivo, rat; set-up: reduction of BACE1 levels: concentration or dose not given beside the values; conditions: AlCl3-induced AD rats; for BACE1 (ng/mL): mean ± SE, n = 6
Experimental: as §2, with “[94]. […]” for “[94].”

TLR4 = TLR4 mRNA expression (RT-qPCR); assay type: in vivo, rat; set-up: reduction of TLR4 mRNA expression: concentration or dose not given beside the values; conditions: AlCl3-induced AD rats; for TLR4: mRNA expression level, mean ± SE, n = 6
Experimental: as §2, §3

BDNF = experiment: Brain BDNF level (ELISA); assay type: in vivo, rat; conditions: AlCl3-induced AD rats; for BDNF (ng/mL): brain tissue, mean ± SE, n = 6
Experimental: as §2, §3

[2] = test system: brain tissue (CC, ST, FD, SN neurons); experiment: Histopathological examination of brain tissue; assay type: in vivo, rat; conditions: brain sections, AlCl3-induced AD rats; for histopathological finding in CC, ST, FD and SN (NP = nuclear pyknosis): H&E
Experimental: as §2
Brain tissue samples were stationed in 10% formalin for 24 h, washed with water, and then serially diluted with alcohol to induce dehydration. After being submerged in paraffin, the specimens were cut into segments that were 4 µm thick using a microtome.

IL-1β = experiment: Brain IL-1β level (ELISA); assay type: in vivo, rat; set-up: reduction in IL-1β levels: concentration or dose not given beside the values; conditions: AlCl3-induced AD rats; for IL-β (pg/g Tissue): mean ± SE, n = 6
Experimental: as §2, with “[94]. […]” for “[94].”

5-HT = experiment: Brain 5-HT level (fluorometric); assay type: in vivo, rat; conditions: AlCl3-induced AD rats; for 5-HT (ng/g Tissue): brain tissue, mean ± SE, n = 6
Experimental: as §2
Brain monoamine levels were promptly assessed following the rats’ euthanasia to prevent changes in the substance’s concentration. Dopamine (DA), norepinephrine (NE), and serotonin (5-HT) fluorometric tests were conducted on brain tissue homogenate using the Ciarlone method. […] The concentrations were articulated as nanograms per gram of fresh tissue using the fluorescence of reference solutions [95].

BChE = biological target: T1, BChE (Homo sapiens, UniProt P06276); experiment: biochemical; conditions: for IC50: fluorescence kit, triplicate; for Selectivity Index BChE/AChE: ratio of IC50 BChE to IC50 AChE, <1 = preferential BChE inhibition
T1 construct: purchased Invitrogen EIABCHEF
T1 sequence (P06276 29-602): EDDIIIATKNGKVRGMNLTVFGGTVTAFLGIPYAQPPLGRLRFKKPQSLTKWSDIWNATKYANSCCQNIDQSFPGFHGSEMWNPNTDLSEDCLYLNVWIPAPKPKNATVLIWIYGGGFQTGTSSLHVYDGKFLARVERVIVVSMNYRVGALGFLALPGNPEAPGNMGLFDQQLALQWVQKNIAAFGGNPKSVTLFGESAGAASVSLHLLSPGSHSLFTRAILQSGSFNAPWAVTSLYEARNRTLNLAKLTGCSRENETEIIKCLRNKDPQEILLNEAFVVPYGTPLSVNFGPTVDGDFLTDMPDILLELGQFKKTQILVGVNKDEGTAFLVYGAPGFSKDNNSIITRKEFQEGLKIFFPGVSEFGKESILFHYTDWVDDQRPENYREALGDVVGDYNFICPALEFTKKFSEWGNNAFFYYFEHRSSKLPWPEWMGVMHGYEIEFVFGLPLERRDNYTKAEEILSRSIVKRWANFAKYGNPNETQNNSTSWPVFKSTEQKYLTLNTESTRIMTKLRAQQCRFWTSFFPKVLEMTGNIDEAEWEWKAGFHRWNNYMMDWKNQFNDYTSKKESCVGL
Experimental: Using an Invitrogen BChE test kit (Catalog #EIABCHEF), the assay was performed in compliance with the supplier’s instructions. The study was conducted using black 96-well plates. […] Each well was then filled with 50 μL of the reaction mixture, which consisted of fluorescence detection reagent and butyrylthiocholine iodide in assay buffer. The plate was then left to incubate for 20 min at room temperature. Finally, excitation at 390 nm was used to observe emission at 510 nm using a microplate reader. Background fluorescence was further eliminated for each data point.

[3] = test system: AlCl3-induced AD rat model; experiment: Morris water maze (MWM) test in AlCl3-induced AD rats; assay type: in vivo; conditions: for Learning (s): escape latency; for Learning (s) / Memory (s): mean ± SE, n = 6; for Memory (s): time spent in target quadrant
Experimental: as §1
Spatial learning and memory were inspected using the MWM test. Tap water was poured into a 150 cm diameter by 60 cm high circular water tank until it reached a depth of 30 cm (25 ± 2 °C). To make the water […], non-toxic white dye was applied. The east, west, north, and south quadrants of the pool were essentially separated into four equal sections. At a specific spot in the middle of one quadrant, an escape platform with a diameter of 10 cm was submerged 2 cm below the water’s surface. The platform stood in the exact same quadrant throughout the testing. The rats’ swimming route was recorded by a video camera situated above the pool. From a designated spot in each quadrant, each rat was submerged in the water with its back turned to the pool wall, and it was then left to swim to the platform. The rats received training sessions every day for three days in a row, with four trials conducted in each session. Before the next trial began, the animals were kept a maximum of 60 s to explore the hidden platform. After that, they were permitted to relax on it for 20 s. The rat was positioned gently on the platform and allowed 20 s to rest if it took longer than 60 s to locate it. The time taken to find the platform, or the escape latency, was documented. In order to do a probing test on the fourth day, the platform was detached away, and the rats were given 60 s to swim liberally. The time spent in the assigned quadrant was counted.

| Compound | SAP% [1] | reduction of NFκβ mRNA expression (NFκβ) [%] | NFκβ (NFκβ) | reduction of β-amyloid levels (Amyloid-β) [%] | Amyloid-β (ng/g Tissue) (Amyloid-β) | reduction of NLRP3 mRNA expression (NLRP3) [%] | NLRP3 (NLRP3) | reduction of Caspase-1 levels (Caspase-1) [%] | Caspase-1 (Caspase-1) | reduction of BACE1 levels (BACE1) [%] | BACE1 (ng/mL) (BACE1) | reduction of TLR4 mRNA expression (TLR4) [%] | TLR4 (TLR4) | elevation of BDNF levels (BDNF) [fold] | BDNF (ng/mL) (BDNF) | histopathological finding in CC, ST, FD and SN (NP = nuclear pyknosis) [2] | reduction in IL-1β levels (IL-1β) [%] | IL-β (pg/g Tissue) (IL-1β) | elevation of 5-HT levels (5-HT) [fold] | 5-HT (ng/g Tissue) (5-HT) | also measured |
| --- | --- | --- | --- | --- | --- | --- | --- | --- | --- | --- | --- | --- | --- | --- | --- | --- | --- | --- | --- | --- | --- |
| O=C1CN(c2ccc(Cl)cc2)C(=O)c2c(sc3c2CCCCC3)O1 [Compound 12, 4-(4-Chlorophenyl)-3,4,7,8,9,10-hexahydro-6H-cyclohepta[4,5]thieno[3,2-f][1,4]oxazepine-2,5-dione] | 76.5 ± 1.52 ^abc % | 49.2 | 4.30 ± 0.14 ^abc | 62.3 | 10.51 ± 0.1 ^abc ng/g Tissue | 69.9 | 3.21 ± 0.12 ^abc | 52.3 | 4.54 ± 0.090 ^abc | 53.9 | 13.68 ± 0.2 ^abc ng/mL | 71.4 | 2.75 ± 0.06 ^abc | 2 | 83.62 ± 0.06 ^abc ng/mL | normal histology in CC and FD, as well as mild NP in ST and SN | 53.9 | 54.51 ± 1.3 ^abc pg/g Tissue | 2.8 | 5.07 ± 0.18 ^abc ng/g Tissue | histology of CC neurons and FD [2]: normal histological structures; pyknosis in ST and SN neurons [2]: minimal pyknosis; IC50 (BChE): 65.9 ± 2.27 µM; Selectivity Index BChE/AChE (BChE): 6.04; increase in quadrant residence time [3]: 3.7 times; Learning (s) [3]: 23.5 ± 1.23 ^abc s; Memory (s) [3]: 37.17 ± 1.52 ^abc s |
| N#Cc1ccc(N2CC(=O)Oc3sc4c(c3C2=O)CCCCC4)cc1 [Compound 13, 4-(2,5-Dioxo-2,3,7,8,9,10-hexahydro-6H-cyclohepta[4,5]thieno[3,2-f][1,4]oxazepin-4(5H)-yl)benzonitrile] | 82.67 ± 1.28 ^abc % | 58.8 | 3.49 ± 0.07 ^abc | 67.6 | 9.04 ± 0.9 ^abc ng/g Tissue | 73.2 | 2.86 ± 0.11 ^abc | 59.5 | 3.85 ± 0.070 ^abc | 61.7 | 11.35 ± 0.31 ^abc ng/mL | 57.5 | 4.09 ± 0.27 ^abc | 2.4 | 104.9 ± 0.07 ^abc ng/mL | normal histology of CC and FD, and moderate NP in ST and SN | 61.3 | 45.79 ± 1.34 ^abc pg/g Tissue | 4.1 | 7.39 ± 0.1 ^abc ng/g Tissue | increase in SAP% [1]: ~35%; histology of CC neurons and FD [2]: normal histological structures; pyknosis in ST and SN neurons [2]: moderate pyknosis; IC50 (BChE): 4.22 ± 0.14 µM; Selectivity Index BChE/AChE (BChE): 0.84; increase in quadrant residence time [3]: about 4.1 times; reduction in escape latency [3]: 71.2%; Learning (s) [3]: 14.17 ± 0.95 ^abc s; Memory (s) [3]: 40.50 ± 2.62 ^abc s |
| CCOc1ccc(N2CC(=O)Oc3sc4c(c3C2=O)CCCCC4)cc1 [Compound 14, 4-(4-Ethoxyphenyl)-3,4,7,8,9,10-hexahydro-6H-cyclohepta[4,5]thieno[3,2-f][1,4]oxazepine-2,5-dione] | 77.5 ± 2.11 ^abc % | 56 | 3.73 ± 0.04 ^abc | 58.4 | 11.66 ± 0.17 ^abc ng/g Tissue | 63.2 | 3.92 ± 0.04 ^abc | 46.6 | 5.08 ± 0.050 ^abc | 43.8 | 16.66 ± 0.38 ^abc ng/mL | 62.6 | 3.60 ± 0.12 ^abc | 2.7 | 115.8 ± 0.07 ^abc ng/mL | moderate NP in CC, FD, and SN, normal histology of neurons in ST; also recorded: significant pyknosis | 49.3 | 59.92 ± 0.98 ^abc pg/g Tissue | 4.5 | 8.22 ± 0.19 ^abc ng/g Tissue | IC50 (BChE): 2.93 ± 0.1 µM; Selectivity Index BChE/AChE (BChE): 7.50; Learning (s) [3]: 21 ± 1.13 ^abc s; Memory (s) [3]: 29.50 ± 2 ^abc s |

Reference: PMC12389534, “Unlocking Therapeutic Potential of Novel Thieno-Oxazepine Hybrids as Multi-Target Inhibitors of AChE/BChE and Evaluation Against Alzheimer’s Disease: In Vivo, In Vitro, Histopathological, and Docking Studies” (Pharmaceuticals, 2025)
